In patent US12539292B2, “BRM targeting compounds and associated methods of use” (Arvinas Operations, Inc., priority 2018, dated 2026):
Where two headings read alike, the source gives them in different places.

Target: T1, BRM (Homo sapiens, UniProt P51531)
T1 construct: In-Cell Western Screen of BRM Degradation in SW1573 Cells; endogenous in cells; host or cells: SW1573
Experiment: In-cell Western screen of BRM degradation in SW1573 cells (Dmax and DC50)
Assay type: cell-based
Settings: BRM degradation, SW1573 cells
How it was run: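 Near-infrared imaging on a LI-COR Odyssey (800 and 680 nm channels) quantifies BRM remaining in fixed SW1573 cells. Cells are dosed for 18-20 h at 0.1% final DMSO, and degradation is expressed as Dmax and DC50.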

[1] = Table 2D, read-out: **Dmax (%) (% degraded)

T1 sequence (P51531 whole entry): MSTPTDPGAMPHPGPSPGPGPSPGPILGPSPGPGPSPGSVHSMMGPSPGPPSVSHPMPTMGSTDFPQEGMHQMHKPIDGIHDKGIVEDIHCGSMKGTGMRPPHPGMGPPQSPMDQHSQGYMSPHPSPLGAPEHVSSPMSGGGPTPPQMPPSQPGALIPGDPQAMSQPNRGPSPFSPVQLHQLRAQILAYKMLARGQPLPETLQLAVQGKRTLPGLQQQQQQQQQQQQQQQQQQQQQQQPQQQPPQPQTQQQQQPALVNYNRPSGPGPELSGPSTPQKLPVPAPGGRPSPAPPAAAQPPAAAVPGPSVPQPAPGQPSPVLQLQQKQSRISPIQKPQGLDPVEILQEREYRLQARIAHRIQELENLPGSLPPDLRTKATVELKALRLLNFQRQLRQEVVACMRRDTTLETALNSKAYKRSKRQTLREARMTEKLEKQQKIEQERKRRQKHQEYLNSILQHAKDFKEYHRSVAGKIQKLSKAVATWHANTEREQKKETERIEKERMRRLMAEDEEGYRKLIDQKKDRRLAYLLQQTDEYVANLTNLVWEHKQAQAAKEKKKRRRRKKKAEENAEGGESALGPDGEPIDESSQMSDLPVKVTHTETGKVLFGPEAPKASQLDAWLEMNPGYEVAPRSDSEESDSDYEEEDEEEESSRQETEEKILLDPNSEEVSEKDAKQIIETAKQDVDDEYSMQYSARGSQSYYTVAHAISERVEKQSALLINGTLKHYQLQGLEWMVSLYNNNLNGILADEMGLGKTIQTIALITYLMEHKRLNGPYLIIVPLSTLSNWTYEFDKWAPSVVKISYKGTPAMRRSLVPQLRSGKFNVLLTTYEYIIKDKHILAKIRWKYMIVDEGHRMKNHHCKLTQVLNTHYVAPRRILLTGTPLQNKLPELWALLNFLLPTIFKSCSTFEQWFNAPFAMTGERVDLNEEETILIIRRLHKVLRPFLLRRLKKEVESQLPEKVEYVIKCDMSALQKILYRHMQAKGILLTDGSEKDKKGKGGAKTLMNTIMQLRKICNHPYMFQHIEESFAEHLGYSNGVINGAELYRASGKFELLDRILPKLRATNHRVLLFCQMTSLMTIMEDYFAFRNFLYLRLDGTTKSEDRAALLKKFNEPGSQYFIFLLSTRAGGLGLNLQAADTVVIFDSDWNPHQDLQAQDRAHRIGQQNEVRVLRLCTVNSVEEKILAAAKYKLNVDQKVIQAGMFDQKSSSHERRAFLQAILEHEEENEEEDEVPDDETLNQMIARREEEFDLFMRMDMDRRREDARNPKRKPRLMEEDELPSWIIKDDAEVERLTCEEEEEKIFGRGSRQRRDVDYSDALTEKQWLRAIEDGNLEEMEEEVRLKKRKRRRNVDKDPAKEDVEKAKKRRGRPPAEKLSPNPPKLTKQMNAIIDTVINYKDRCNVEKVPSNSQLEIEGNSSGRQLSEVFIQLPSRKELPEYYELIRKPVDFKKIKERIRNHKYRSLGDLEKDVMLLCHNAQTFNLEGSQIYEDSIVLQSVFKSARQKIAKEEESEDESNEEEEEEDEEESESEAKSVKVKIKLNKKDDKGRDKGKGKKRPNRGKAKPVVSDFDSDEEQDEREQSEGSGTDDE

Row | SMILES | Dmax [1] | DC50 (Table 2D, read-out: *DC50) | DC50 (read-out: DC50) | Dmax (read-out: Dmax (% degraded))
1 | CC(C)[C@@H](C(=O)N1C[C@H](O)C[C@H]1C(=O)N[C@@H](C)c1ccc(-c2ccnn2C)cc1)c1cc(N2CCC(CN3CCC(O[C@H]4C[C@H](Oc5cc(N6C7CCC6CN(c6cc(-c8ccccc8O)nnc6N)C7)ccn5)C4)CC3)CC2)no1 [compound 622, (2S,4R)-1-((2R)-2-(3-(4-((4-((1r,3r)-3-((4-(3-(3-amino-6-(2-hydroxyphenyl)pyridazin-4-yl)-3,8-diazabicyclo[3.2.1]octan-8-yl)pyridin-2-yl)oxy)cyclobutoxy)piperidin-1-yl)methyl)piperidin-1-yl)isoxazol-5-yl)-3-methylbutanoyl)-4-hydroxy-N-((S)-1-(4-(1-methyl-1H-pyrazol-5-yl)phenyl)ethyl)pyrrolidine-2-carboxamide] | > 75% | < 2.5 nM |  | 
2 | Cc1ncsc1-c1ccc([C@H](C)NC(=O)[C@@H]2C[C@@H](O)CN2C(=O)[C@H](c2cc(N3CCC4(CC3)CN(C[C@H]3C[C@H](Oc5cc(N6C7CCC6CN(c6cc(-c8ccccc8O)nnc6N)C7)ccn5)C3)CCO4)no2)C(C)C)cc1 [compound 623, (2S,4R)-1-((2S)-2-(3-(4-(((1r,3S)-3-((4-(3-(3-amino-6-(2-hydroxyphenyl)pyridazin-4-yl)-3,8-diazabicyclo[3.2.1]octan-8-yl)pyridin-2-yl)oxy)cyclobutyl)methyl)-1-oxa-4,9-diazaspiro[5.5]undecan-9-yl)isoxazol-5-yl)-3-methylbutanoyl)-4-hydroxy-N-((S)-1-(4-(4-methylthiazol-5-yl)phenyl)ethyl)pyrrolidine-2-carboxamide] |  | > 30 nM |  | 
3 | Cc1ncsc1-c1ccc([C@H](C)NC(=O)[C@@H]2C[C@@H](O)CN2C(=O)[C@@H](c2cc(N3CCC4(CC3)CN(C[C@H]3C[C@H](Oc5cc(N6C7CCC6CN(c6cc(-c8ccccc8O)nnc6N)C7)ccn5)C3)CCO4)no2)C(C)C)cc1 [compound 624, (2S,4R)-1-((2R)-2-(3-(4-(((1r,3R)-3-((4-(3-(3-amino-6-(2-hydroxyphenyl)pyridazin-4-yl)-3,8-diazabicyclo[3.2.1]octan-8-yl)pyridin-2-yl)oxy)cyclobutyl)methyl)-1-oxa-4,9-diazaspiro[5.5]undecan-9-yl)isoxazol-5-yl)-3-methylbutanoyl)-4-hydroxy-N-((S)-1-(4-(4-methylthiazol-5-yl)phenyl)ethyl)pyrrolidine-2-carboxamide] | > 75% | < 2.5 nM |  | 
4 | Cc1ncsc1-c1ccc([C@H](C)NC(=O)[C@@H]2C[C@@H](O)CN2C(=O)[C@H](c2cc(N3CCC(CN4CCC(O[C@H]5C[C@H](Oc6cc(/C=C/c7cc(-c8ccccc8O)nnc7N)ccn6)C5)CC4)CC3)no2)C(C)C)cc1 [compound 625, (2S,4R)-1-((S)-2-(3-(4-((4-((1r,3r)-3-((4-((E)-2-(3-amino-6-(2-hydroxyphenyl)pyridazin-4-yl)vinyl)pyridin-2-yl)oxy)cyclobutoxy)piperidin-1-yl)methyl)piperidin-1-yl)isoxazol-5-yl)-3-methylbutanoyl)-4-hydroxy-N-((S)-1-(4-(4-methylthiazol-5-yl)phenyl)ethyl)pyrrolidine-2-carboxamide] |  | > 30 nM |  | 
5 | Cc1ncsc1-c1ccc([C@H](C)NC(=O)[C@@H]2C[C@@H](O)CN2C(=O)[C@@H](c2cc(N3CCC(CN4CCC(O[C@H]5C[C@H](Oc6cc(/C=C/c7cc(-c8ccccc8O)nnc7N)ccn6)C5)CC4)CC3)no2)C(C)C)cc1 [compound 626, (2S,4R)-1-((R)-2-(3-(4-((4-((1r,3r)-3-((4-((E)-2-(3-amino-6-(2-hydroxyphenyl)pyridazin-4-yl)vinyl)pyridin-2-yl)oxy)cyclobutoxy)piperidin-1-yl)methyl)piperidin-1-yl)isoxazol-5-yl)-3-methylbutanoyl)-4-hydroxy-N-((S)-1-(4-(4-methylthiazol-5-yl)phenyl)ethyl)pyrrolidine-2-carboxamide] |  |  | < 2.5 nM | > 75%
6 | Cc1ncsc1-c1ccc([C@H](C)NC(=O)[C@@H]2C[C@@H](O)CN2C(=O)[C@@H](c2cc(OCCN3CC[C@@H](O[C@H]4C[C@H](Oc5cc(N6C7CCC6CN(c6cc(-c8ccccc8O)nnc6N)C7)ccn5)C4)C[C@@H]3C)no2)C(C)C)cc1 [compound 627, (2S,4R)-1-((2R)-2-(3-(2-((2S,4R)-4-((1r,3R)-3-((4-(3-(3-amino-6-(2-hydroxyphenyl)pyridazin-4-yl)-3,8-diazabicyclo[3.2.1]octan-8-yl)pyridin-2-yl)oxy)cyclobutoxy)-2-methylpiperidin-1-yl)ethoxy)isoxazol-5-yl)-3-methylbutanoyl)-4-hydroxy-N-((S)-1-(4-(4-methylthiazol-5-yl)phenyl)ethyl)pyrrolidine-2-carboxamide] |  |  | < 2.5 nM | > 75%
7 | Cc1ncsc1-c1ccc([C@H](C)NC(=O)[C@@H]2C[C@@H](O)CN2C(=O)[C@@H](c2cc(OCCN3CC[C@H](O[C@H]4C[C@H](Oc5cc(N6C7CCC6CN(c6cc(-c8ccccc8O)nnc6N)C7)ccn5)C4)C[C@H]3C)no2)C(C)C)cc1 [compound 628, (2S,4R)-1-((2R)-2-(3-(2-((2R,4S)-4-((1r,3S)-3-((4-(3-(3-amino-6-(2-hydroxyphenyl)pyridazin-4-yl)-3,8-diazabicyclo[3.2.1]octan-8-yl)pyridin-2-yl)oxy)cyclobutoxy)-2-methylpiperidin-1-yl)ethoxy)isoxazol-5-yl)-3-methylbutanoyl)-4-hydroxy-N-((S)-1-(4-(4-methylthiazol-5-yl)phenyl)ethyl)pyrrolidine-2-carboxamide] |  |  | < 2.5 nM | > 75%
8 | CC(C)[C@H](C(=O)N1C[C@H](O)C[C@H]1C(=O)N[C@@H](C)c1ccc(-c2scnc2N)cc1)c1cc(N2CCC(CN3CCC(O[C@H]4C[C@H](Oc5cc(N6C7CCC6CN(c6cc(-c8ccccc8O)nnc6N)C7)ccn5)C4)CC3)CC2)no1 [compound 629, (2S,4R)-1-((2S)-2-(3-(4-((4-((1r,3r)-3-((4-(3-(3-amino-6-(2-hydroxyphenyl)pyridazin-4-yl)-3,8-diazabicyclo[3.2.1]octan-8-yl)pyridin-2-yl)oxy)cyclobutoxy)piperidin-1-yl)methyl)piperidin-1-yl)isoxazol-5-yl)-3-methylbutanoyl)-N-((S)-1-(4-(4-aminothiazol-5-yl)phenyl)ethyl)-4-hydroxypyrrolidine-2-carboxamide] |  |  | 2.5 to 10 nM | > 75%
9 | CC(C)[C@@H](C(=O)N1C[C@H](O)C[C@H]1C(=O)N[C@@H](C)c1ccc(-c2scnc2N)cc1)c1cc(N2CCC(CN3CCC(O[C@H]4C[C@H](Oc5cc(N6C7CCC6CN(c6cc(-c8ccccc8O)nnc6N)C7)ccn5)C4)CC3)CC2)no1 [compound 630, (2S,4R)-1-((2R)-2-(3-(4-((4-((1r,3r)-3-((4-(3-(3-amino-6-(2-hydroxyphenyl)pyridazin-4-yl)-3,8-diazabicyclo[3.2.1]octan-8-yl)pyridin-2-yl)oxy)cyclobutoxy)piperidin-1-yl)methyl)piperidin-1-yl)isoxazol-5-yl)-3-methylbutanoyl)-N-((S)-1-(4-(4-aminothiazol-5-yl)phenyl)ethyl)-4-hydroxypyrrolidine-2-carboxamide] |  |  | < 2.5 nM | > 75%
10 | CC(C)[C@H](C(=O)N1C[C@H](O)C[C@H]1C(=O)N[C@@H](C)c1ccc(-c2ccnn2C)cc1)c1cc(N2CCC(CN3CCC(O[C@H]4C[C@H](Oc5cc(N6C7CCC6CN(c6cc(-c8ccccc8O)nnc6N)C7)ccn5)C4)CC3)CC2)no1 [compound 631, (2S,4R)-1-((2S)-2-(3-(4-((4-((1r,3r)-3-((4-(3-(3-amino-6-(2-hydroxyphenyl)pyridazin-4-yl)-3,8-diazabicyclo[3.2.1]octan-8-yl)pyridin-2-yl)oxy)cyclobutoxy)piperidin-1-yl)methyl)piperidin-1-yl)isoxazol-5-yl)-3-methylbutanoyl)-4-hydroxy-N-((S)-1-(4-(1-methyl-1H-pyrazol-5-yl)phenyl)ethyl)pyrrolidine-2-carboxamide] |  |  | < 2.5 nM | > 75%
11 | Cc1ncsc1-c1ccc([C@H](C)NC(=O)[C@@H]2C[C@@H](O)CN2C(=O)[C@@H](c2cc(OCCC3CCN(C[C@H]4C[C@H](C#CC(C)n5cc(-c6cc(-c7ccccc7O)nnc6N)cn5)C4)CC3)no2)C(C)C)cc1 (stereo partly drawn) [compound 632, (2S,4R)-1-((2S)-2-(3-(2-(1-(((1r,3S)-3-(3-(4-(3-amino-6-(2-hydroxyphenyl)pyridazin-4-yl)-1H-pyrazol-1-yl)but-1-yn-1-yl)cyclobutyl)methyl)piperidin-4-yl)ethoxy)isoxazol-5-yl)-3-methylbutanoyl)-4-hydroxy-N-((S)-1-(4-(4-methylthiazol-5-yl)phenyl)ethyl)pyrrolidine-2-carboxamide] |  |  | < 2.5 nM | > 75%
12 | Cc1ncsc1-c1ccc([C@H](C)NC(=O)[C@@H]2C[C@@H](O)CN2C(=O)[C@H](c2cc(OCCC3CCN(C[C@H]4C[C@H](C#CC(C)n5cc(-c6cc(-c7ccccc7O)nnc6N)cn5)C4)CC3)no2)C(C)C)cc1 (stereo partly drawn) [compound 633, (2S,4R)-1-((2R)-2-(3-(2-(1-(((1r,3R)-3-(3-(4-(3-amino-6-(2-hydroxyphenyl)pyridazin-4-yl)-1H-pyrazol-1-yl)but-1-yn-1-yl)cyclobutyl)methyl)piperidin-4-yl)ethoxy)isoxazol-5-yl)-3-methylbutanoyl)-4-hydroxy-N-((S)-1-(4-(4-methylthiazol-5-yl)phenyl)ethyl)pyrrolidine-2-carboxamide] |  |  | < 2.5 nM | > 75%
13 | CC(C)C(C(=O)N1C[C@H](O)C[C@H]1C(=O)N[C@@H](C)c1ccc(C#N)cc1)c1cc(N2CCC(CN3CCC(O[C@H]4C[C@H](Oc5cc(N6C7CCC6CN(c6cc(-c8ccccc8O)nnc6N)C7)ccn5)C4)CC3)CC2)no1 (stereo partly drawn) [compound 639, (2S,4R)-1-((2S)-2-(3-(4-((4-((1r,3r)-3-((4-(3-(3-amino-6-(2-hydroxyphenyl)pyridazin-4-yl)-3,8-diazabicyclo[3.2.1]octan-8-yl)pyridin-2-yl)oxy)cyclobutoxy)piperidin-1-yl)methyl)piperidin-1-yl)isoxazol-5-yl)-3-methylbutanoyl)-N-((S)-1-(4-cyanophenyl)ethyl)-4-hydroxypyrrolidine-2-carboxamide] |  |  | > 30 nM | 
